Test results published in the supplement of paper PMC11451515.

Test system: NOMO1
Assay: cell viability relative to DMSO control; higher = less cytotoxic
Conditions: 48 h
Method in brief: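 Viability was expressed as a per-plate percentage of DMSO wells, with cell-free wells as background. Leukemia cells (NOMO1 or SEM at 500 cells/well, P12-Ichikawa at 1000 cells/well) were adapted for at least four passages in each medium and seeded in 1536-well plates (5 μl). Library compounds in DMSO were pin-dosed over an 11-point threefold series from 47 μM to 0.79 nM, and CellTiter-Glo One luminescence was read after 48 h at 37°C.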

[1] = HPLM + 10% dialyzed FBS, 0.000781 µM
[2] = HPLM + 10% dialyzed FBS, 0.00234 µM
[3] = HPLM + 10% dialyzed FBS, 0.00702 µM
[4] = HPLM + 10% dialyzed FBS, 0.0211 µM
[5] = HPLM + 10% dialyzed FBS, 0.0632 µM
[6] = HPLM + 10% dialyzed FBS, 0.19 µM
[7] = HPLM + 10% dialyzed FBS, 0.569 µM
[8] = HPLM + 10% dialyzed FBS, 1.71 µM
[9] = HPLM + 10% dialyzed FBS, 5.12 µM
[10] = HPLM + 10% dialyzed FBS, 15.4 µM
[11] = HPLM + 10% dialyzed FBS, 46.1 µM
[12] = RPMI 5 mM glucose + 10% FBS, 0.000781 µM
[13] = RPMI 5 mM glucose + 10% FBS, 0.00234 µM
[14] = RPMI 5 mM glucose + 10% FBS, 0.00702 µM
[15] = RPMI 5 mM glucose + 10% FBS, 0.0211 µM
[16] = RPMI 5 mM glucose + 10% FBS, 0.0632 µM
[17] = RPMI 5 mM glucose + 10% FBS, 0.19 µM
[18] = RPMI 5 mM glucose + 10% FBS, 0.569 µM
[19] = RPMI 5 mM glucose + 10% FBS, 1.71 µM
[20] = RPMI 5 mM glucose + 10% FBS, 5.12 µM
[21] = RPMI 5 mM glucose + 10% FBS, 15.4 µM
[22] = RPMI 5 mM glucose + 10% FBS, 46.1 µM
[23] = RPMI 5 mM glucose + 10% dialyzed FBS, 0.000781 µM
[24] = RPMI 5 mM glucose + 10% dialyzed FBS, 0.00234 µM
[25] = RPMI 5 mM glucose + 10% dialyzed FBS, 0.00702 µM
[26] = RPMI 5 mM glucose + 10% dialyzed FBS, 0.0211 µM
[27] = RPMI 5 mM glucose + 10% dialyzed FBS, 0.0632 µM
[28] = RPMI 5 mM glucose + 10% dialyzed FBS, 0.19 µM
[29] = RPMI 5 mM glucose + 10% dialyzed FBS, 0.569 µM
[30] = RPMI 5 mM glucose + 10% dialyzed FBS, 1.71 µM
[31] = RPMI 5 mM glucose + 10% dialyzed FBS, 5.12 µM
[32] = RPMI 5 mM glucose + 10% dialyzed FBS, 15.4 µM
[33] = RPMI 5 mM glucose + 10% dialyzed FBS, 46.1 µM

| Structure (SMILES) | cell viability [1] | cell viability [2] | cell viability [3] | cell viability [4] | cell viability [5] | cell viability [6] | cell viability [7] | cell viability [8] | cell viability [9] | cell viability [10] | cell viability [11] | cell viability [12] | cell viability [13] | cell viability [14] | cell viability [15] | cell viability [16] | cell viability [17] | cell viability [18] | cell viability [19] | cell viability [20] | cell viability [21] | cell viability [22] | cell viability [23] | cell viability [24] | cell viability [25] | cell viability [26] | cell viability [27] | cell viability [28] | cell viability [29] | cell viability [30] | cell viability [31] | cell viability [32] | cell viability [33] |
| --- | --- | --- | --- | --- | --- | --- | --- | --- | --- | --- | --- | --- | --- | --- | --- | --- | --- | --- | --- | --- | --- | --- | --- | --- | --- | --- | --- | --- | --- | --- | --- | --- | --- |
| C#CCC(Cc1cnc2nc(N)nc(N)c2n1)c1ccc(C(=O)N[C@@H](CCC(=O)O)C(=O)O)cc1 (stereo not given in full) | 124% | 114% | 130% | 128% | 93.6% | 52% | 45.8% | 49.4% | 45.1% | 54.7% | 49.7% | 127% | 122% | 122% | 123% | 114% | 97.7% | 73.9% | 77.1% | 78.4% | 72.4% | 74.9% | – | – | – | – | – | – | – | – | – | – | – |
| CC[C@H](C)C(=O)O[C@H]1C[C@@H](C)\C=C2\C=C/[C@H](C)[C@H](CC[C@@H]3C[C@@H](O)CC(=O)O3)[C@@H]12 | 95.9% | 103% | 100% | 108% | 96.3% | 92.8% | 90.6% | 89.9% | 93.3% | 69.4% | 53.5% | 87.5% | 89.1% | 89.7% | 98.9% | 83.5% | 90% | 88.4% | 80.5% | 86.8% | 77.1% | 71.4% | 80.3% | 93% | 84.6% | 97% | 91.7% | 91% | 91.3% | 82% | 90.7% | 77.4% | 54.9% |
| Cc1noc(N[S+](=O)([O-])c2ccc(N)cc2)c1C | 92.3% | 91.3% | 109% | 97.9% | 95.6% | 101% | 109% | 114% | 96% | 92% | 104% | 98% | 92.7% | 88.6% | 89.5% | 108% | 102% | 113% | 111% | 106% | 91.6% | 104% | 92.3% | 90.7% | 71.5% | 92.6% | 89% | 89.7% | 92.6% | 96.2% | 90.3% | 94.6% | 81.4% |
| CC(C)[C@H](C(=O)Nc1ccc(C(=O)NO)cc1)c1ccccc1 | – | – | – | – | – | – | – | – | – | – | – | 113% | 108% | 122% | 138% | 119% | 131% | 125% | 118% | 19% | 8.3% | 8.21% | – | – | – | – | – | – | – | – | – | – | – |
| c1cc2c(cc1[C@H]1OC[C@H]3[C@@H]1CO[C@@H]3c1ccc3c(c1)OCO3)OCO2 | 115% | 120% | 135% | 112% | 134% | 143% | 139% | 138% | 118% | 131% | 124% | 113% | 122% | 129% | 130% | 146% | 138% | 139% | 125% | 119% | 136% | 130% | 119% | 127% | 123% | 130% | 139% | 137% | 125% | 164% | 117% | 129% | 137% |
| Cc1nc2ccc(CN(C)c3ccc(C(=O)N[C@@H](CCC(=O)O)C(=O)O)s3)cc2c(=O)[nH]1 | 110% | 120% | 101% | 111% | 99% | 53.3% | 46% | 44.8% | 41.6% | 41.6% | 38.7% | 120% | 113% | 105% | 112% | 100% | 114% | 94.5% | 72.2% | 71.8% | 75.7% | 73.1% | 116% | 109% | 104% | 120% | 108% | 70.9% | 37.6% | 25.6% | 33% | 33.1% | 32.1% |
| CCOC(=O)c1c(CSc2ccccc2)n(C)c2cc(Br)c(O)c(CN(C)C)c12 | 129% | 121% | 114% | 133% | 127% | 128% | 130% | 120% | 128% | 120% | 104% | – | – | – | – | – | – | – | – | – | – | – | 119% | 119% | 124% | 129% | 114% | 124% | 124% | 129% | 108% | 92.8% | 69.1% |
| c1ccc2c(CN3CCNCC3)cccc2c1 | 99.6% | 113% | 124% | 106% | 112% | 121% | 113% | 112% | 104% | 99.7% | 93.7% | 103% | 124% | 115% | 117% | 117% | 126% | 115% | 133% | 110% | 99.9% | 51.6% | 108% | 113% | 106% | 117% | 115% | 122% | 129% | 122% | 116% | 91.7% | 64.9% |
